# Laboratory results: ChEMBL document CHEMBL1123147, “The intercalation of 6-chloro-substituted-9-[[3-(dimethylamino)propyl]amino]acridines with DNA” (J Med Chem, 1985)
# System: Nucleic Acid
# Assay: Binding constant were determined from viscometric titrations with closed circular superhelical DNA
row,SMILES,K app
1,COc1ccc2nc3cc(Cl)ccc3c(NCCCN(C)C)c2c1,210000
2,CN(C)CCCNc1c2ccc(Cl)cc2nc2ccc(Cl)cc12,160000
3,CSc1ccc2nc3cc(Cl)ccc3c(NCCCN(C)C)c2c1,200000
4,Cc1ccc2nc3cc(Cl)ccc3c(NCCCN(C)C)c2c1,290000
5,CN(C)CCCNc1c2ccccc2nc2cc(Cl)ccc12,130000
6,CN(C)CCCNc1c2ccc(Cl)cc2nc2ccc(F)cc12,160000
